From patent US12491170B2, “Stable treprostinil prodrugs” (United Therapeutics Corporation, priority 2020, dated 2025)
Where two headings read alike, the source gives them in different places. Values belong to the compound of their own block, whether it stands above or below them.

Columns and labels:
[1] = rat
[2] = Stability in liver microsomes, rat
[3] = dog
[4] = Stability in liver microsomes, dog
[5] = Stability in cryopreserved hepatocytes, dog
[6] = Stability in human subcutaneous skin homogenate; settings: for AUC: human
[7] = Stability in cryopreserved hepatocytes, rat
[8] = Stability in liver microsomes, human; settings: for AUC: human
[9] = Stability in cryopreserved hepatocytes, human

AUC [1]: 4.67 µmol·min/L
Trep Concentration 0 min [2]: 0 µM
Trep Concentration 10 min [2]: 0.0425 µM
Trep Concentration 20 min [2]: 0.0633 µM
Trep Concentration 30 min [2]: 0.0882 µM
Trep Concentration 60 min [2]: 0.123 µM
AUC [3]: 2.78 µmol·min/L
Trep Concentration 0 min [4]: 0 µM
Trep Concentration 10 min [4]: 0.0211 µM
Trep Concentration 20 min [4]: 0.0334 µM
Trep Concentration 30 min [4]: 0.0485 µM
Trep Concentration 60 min [4]: 0.0841 µM
Trep Concentration (μM) 0 min [5]: 0 µM
Trep Concentration (μM) 15 min [5]: 0.00361 µM
Trep Concentration (μM) 30 min [5]: 0.00376 µM
Trep Concentration (μM) 60 min [5]: 0.00437 µM
Trep Concentration (μM) 120 min [5]: 0.00465 µM
AUC ([5]; dog): 0.47 µmol·min/L
Trep Concentration 0 min [6]: 0 µM
Trep Concentration 30 min [6]: 0 µM
Trep Concentration 60 min [6]: 0 µM
Trep Concentration 120 min [6]: 0 µM
AUC [6]: 0.00 µmol·min/L
Trep Concentration (μM) 0 min [7]: 0 µM
Trep Concentration (μM) 15 min [7]: 0.0144 µM
Trep Concentration (μM) 30 min [7]: 0.0194 µM
Trep Concentration (μM) 60 min [7]: 0.0209 µM
Trep Concentration (μM) 120 min [7]: 0.0224 µM
AUC ([7]; rat): 2.27 µmol·min/L
Trep Concentration 0 min [8]: 0 µM
Trep Concentration 10 min [8]: 0.0342 µM
Trep Concentration 20 min [8]: 0.0556 µM
Trep Concentration 30 min [8]: 0.0656 µM
Trep Concentration 60 min [8]: 0.0835 µM
AUC [8]: 3.46 µmol·min/L
Trep Concentration (μM) 0 min [9]: 0 µM
Trep Concentration (μM) 15 min [9]: 0.00507 µM
Trep Concentration (μM) 30 min [9]: 0.00509 µM
Trep Concentration (μM) 60 min [9]: 0.00568 µM
Trep Concentration (μM) 120 min [9]: 0.0061 µM
AUC ([9]; human): 0.63 µmol·min/L
Compound: CCCCCC(CCC1C(O)CC2Cc3c(cccc3OCC(=O)O)CC21)OCCC (centres unmarked) [XLVI]

AUC [1]: 0.00 µmol·min/L
Trep Concentration 0 min [2]: 0 µM
Trep Concentration 10 min [2]: 0 µM
Trep Concentration 20 min [2]: 0 µM
Trep Concentration 30 min [2]: 0 µM
Trep Concentration 60 min [2]: 0 µM
AUC [3]: 0.00 µmol·min/L
Trep Concentration 0 min [4]: 0 µM
Trep Concentration 10 min [4]: 0 µM
Trep Concentration 20 min [4]: 0 µM
Trep Concentration 30 min [4]: 0 µM
Trep Concentration 60 min [4]: 0 µM
Trep Concentration 0 min [6]: 0 µM
Trep Concentration 30 min [6]: 0 µM
Trep Concentration 60 min [6]: 0 µM
Trep Concentration 120 min [6]: 0 µM
AUC [6]: 0.00 µmol·min/L
Trep Concentration 0 min [8]: 0 µM
Trep Concentration 10 min [8]: 0 µM
Trep Concentration 20 min [8]: 0.014 µM
Trep Concentration 30 min [8]: 0.018 µM
Trep Concentration 60 min [8]: 0.022 µM
AUC [8]: 0.83 µmol·min/L
Compound: CCCCCC(CCC1C(O)CC2Cc3c(cccc3OCC(=O)O)CC21)OC(=O)N1CCCCC1 (centres unmarked) [XIX]

AUC [1]: 6.86 µmol·min/L
Trep Concentration 0 min [2]: 0.011 µM
Trep Concentration 10 min [2]: 0.0524 µM
Trep Concentration 20 min [2]: 0.0901 µM
Trep Concentration 30 min [2]: 0.122 µM
Trep Concentration 60 min [2]: 0.196 µM
AUC [3]: 30.11 µmol·min/L
Trep Concentration 0 min [4]: 0.0977 µM
Trep Concentration 10 min [4]: 0.347 µM
Trep Concentration 20 min [4]: 0.495 µM
Trep Concentration 30 min [4]: 0.562 µM
Trep Concentration 60 min [4]: 0.664 µM
Trep Concentration 0 min [6]: 0 µM
Trep Concentration 30 min [6]: 0.206 µM
Trep Concentration 60 min [6]: 0.369 µM
Trep Concentration 120 min [6]: 0.533 µM
AUC [6]: 38.78 µmol·min/L
Trep Concentration 0 min [8]: 0.036 µM
Trep Concentration 10 min [8]: 0.132 µM
Trep Concentration 20 min [8]: 0.227 µM
Trep Concentration 30 min [8]: 0.31 µM
Trep Concentration 60 min [8]: 0.429 µM
AUC [8]: 16.41 µmol·min/L
Compound: CCCCCC(CCC1C(O)CC2Cc3c(cccc3OCC(=O)O)CC21)OC(=O)CN (centres unmarked) [XXX]

AUC [1]: 3.09 µmol·min/L
Trep Concentration 0 min [2]: 0.00504 µM
Trep Concentration 10 min [2]: 0.0179 µM
Trep Concentration 20 min [2]: 0.0351 µM
Trep Concentration 30 min [2]: 0.0465 µM
Trep Concentration 60 min [2]: 0.107 µM
AUC [3]: 35.65 µmol·min/L
Trep Concentration 0 min [4]: 0.134 µM
Trep Concentration 10 min [4]: 0.479 µM
Trep Concentration 20 min [4]: 0.63 µM
Trep Concentration 30 min [4]: 0.674 µM
Trep Concentration 60 min [4]: 0.694 µM
Trep Concentration 0 min [6]: 0 µM
Trep Concentration 60 min [6]: 0.204 µM
Trep Concentration 120 min [6]: 0.323 µM
AUC [6]: 22.23 µmol·min/L
Trep Concentration 0 min [8]: 0.0531 µM
Trep Concentration 10 min [8]: 0.193 µM
Trep Concentration 20 min [8]: 0.31 µM
Trep Concentration 30 min [8]: 0.327 µM
Trep Concentration 60 min [8]: 0.383 µM
AUC [8]: 17.58 µmol·min/L
Compound: CCCCCC(CCC1C(O)CC2Cc3c(cccc3OCC(=O)O)CC21)OC(=O)C(C)N (centres unmarked) [XXXI]

The remaining lines, values behind:

Compound: CCCCC[C@@H](CC[C@@H]1[C@H]2Cc3cccc(OCC(=O)O)c3C[C@H]2C[C@H]1O)OC(=O)[C@@H](N)C(C)C [XXIX]
AUC [1]: 0.56 µmol·min/L
Trep Concentration 0 min [2]: 0 µM
Trep Concentration 10 min [2]: 0.00463 µM
Trep Concentration 20 min [2]: 0.00443 µM
Trep Concentration 30 min [2]: 0.0102 µM
Trep Concentration 60 min [2]: 0.0178 µM
AUC [3]: 1.30 µmol·min/L
Trep Concentration 0 min [4]: 0 µM
Trep Concentration 10 min [4]: 0.012 µM
Trep Concentration 20 min [4]: 0.0177 µM
Trep Concentration 30 min [4]: 0.025 µM
Trep Concentration 60 min [4]: 0.0334 µM
Trep Concentration 0 min [6]: 0 µM
Trep Concentration 30 min [6]: 0.0333 µM
Trep Concentration 60 min [6]: 0.0488 µM
Trep Concentration 120 min [6]: 0.0759 µM
AUC [6]: 5.47 µmol·min/L
Trep Concentration 0 min [8]: 0.00482 µM
Trep Concentration 20 min [8]: 0.0168 µM
Trep Concentration 30 min [8]: 0.0173 µM
Trep Concentration 60 min [8]: 0.0265 µM
AUC [8]: 1.05 µmol·min/L

Compound: CCCCCC(CCC1C(O)CC2Cc3c(cccc3OCC(=O)O)CC21)OCOC(=O)C(C)(C)C (centres unmarked) [LII]
AUC [1]: 51.78 µmol·min/L
Trep Concentration 0 min [2]: 0.937 µM
Trep Concentration 10 min [2]: 0.938 µM
Trep Concentration 20 min [2]: 0.892 µM
Trep Concentration 30 min [2]: 0.838 µM
Trep Concentration 60 min [2]: 0.802 µM
AUC [3]: 50.60 µmol·min/L
Trep Concentration 0 min [4]: 0.758 µM
Trep Concentration 10 min [4]: 0.885 µM
Trep Concentration 20 min [4]: 0.868 µM
Trep Concentration 30 min [4]: 0.834 µM
Trep Concentration 60 min [4]: 0.84 µM
Trep Concentration 0 min [6]: 0.0201 µM
Trep Concentration 30 min [6]: 1.05 µM
Trep Concentration 60 min [6]: 1.22 µM
Trep Concentration 120 min [6]: 1.3 µM
AUC [6]: 125.70 µmol·min/L
Trep Concentration 0 min [8]: 0.948 µM
Trep Concentration 10 min [8]: 0.798 µM
Trep Concentration 20 min [8]: 0.679 µM
Trep Concentration 30 min [8]: 0.538 µM
Trep Concentration 60 min [8]: 0.346 µM
AUC [8]: 35.46 µmol·min/L

Compound: CCCCCC(CCC1C(O)CC2Cc3c(cccc3OCC(=O)O)CC21)OC(=O)OC(C)C (centres unmarked) [XVII]
AUC [1]: 29.40 µmol·min/L
Trep Concentration 0 min [2]: 0.29 µM
Trep Concentration 10 min [2]: 0.46 µM
Trep Concentration 20 min [2]: 0.48 µM
Trep Concentration 30 min [2]: 0.53 µM
Trep Concentration 60 min [2]: 0.53 µM
AUC [3]: 42.10 µmol·min/L
Trep Concentration 0 min [4]: 0.45 µM
Trep Concentration 10 min [4]: 0.57 µM
Trep Concentration 20 min [4]: 0.66 µM
Trep Concentration 30 min [4]: 0.74 µM
Trep Concentration 60 min [4]: 0.85 µM
Trep Concentration 0 min [6]: 0 µM
Trep Concentration 30 min [6]: 0.064 µM
Trep Concentration 60 min [6]: 0.12 µM
Trep Concentration 120 min [6]: 0.22 µM
AUC [6]: 13.92 µmol·min/L
Trep Concentration 0 min [8]: 0.55 µM
Trep Concentration 10 min [8]: 0.55 µM
Trep Concentration 20 min [8]: 0.5 µM
Trep Concentration 30 min [8]: 0.39 µM
Trep Concentration 60 min [8]: 0.27 µM
AUC [8]: 25.10 µmol·min/L

Compound: CCCCCC(O)CCC1C(OC(=O)CCC(=O)O)CC2Cc3c(cccc3OCC(=O)O)CC21 (centres unmarked) [XXII]
AUC [1]: 0.24 µmol·min/L
Trep Concentration 0 min [2]: 0 µM
Trep Concentration 10 min [2]: 0 µM
Trep Concentration 20 min [2]: 0 µM
Trep Concentration 30 min [2]: 0 µM
Trep Concentration 60 min [2]: 0.016 µM
AUC [3]: 0.00 µmol·min/L
Trep Concentration 0 min [4]: 0 µM
Trep Concentration 10 min [4]: 0 µM
Trep Concentration 20 min [4]: 0 µM
Trep Concentration 30 min [4]: 0 µM
Trep Concentration 60 min [4]: 0 µM
Trep Concentration 0 min [6]: 0 µM
Trep Concentration 30 min [6]: 0 µM
Trep Concentration 60 min [6]: 0 µM
Trep Concentration 120 min [6]: 0 µM
AUC [6]: 0.00 µmol·min/L
Trep Concentration 0 min [8]: 0 µM
Trep Concentration 10 min [8]: 0 µM
Trep Concentration 20 min [8]: 0 µM
Trep Concentration 30 min [8]: 0 µM
Trep Concentration 60 min [8]: 0 µM
AUC [8]: 0.00 µmol·min/L
